Source: article PMC10901950, “Neuroprotective and Anti-inflammatory Effects of Rubiscolin-6 Analogs with Proline Surrogates in Position 2” (Neurochemical Research, 2023)
Numbered stars: 1 amine (or outer) side, 2 acyl side, 3 side chain; on linkers, the order of the positions; unused ones are H or OH. Square brackets hold non-standard residues; d marks the D form. Ends that are not written are not given here. Peptide text beside a SMILES is read from it. Nip(3R) = O=C([C@@H]1CCCN([*:1])C1)[*:2]; Dmt = Cc1cc(O)cc(C)c1C[C@H](N)C(=O)O; Inp = O=C(O)C1CCNCC1

Key:
[1] = Degradation by the brain homogenate; assay type: in vitro ADME; conditions: rat brain homogenate 100 µL (10 mg protein/mL, 50 mM Tris-HCl pH 7.4) + 100 µL peptide 0.5 mM, final 200 µL, 37 °C, 0-60 min, HPLC read-out, ln 2/k; mean ± SEM of four independent experiments in duplicate; read-out: T0.5 (degradation half-life)
Experimental: The degradation studies were performed on the rat brain homogenate according to the modified method described elsewhere. Briefly, rat brains, after isolation and homogenization in 50 mM Tris–HCl (pH 7.4), were stored at − 80 °C until used. During the test, the aliquots (100 µL, 10 mg protein/mL) were incubated with 100 µL of a peptide (0.5 mM) over 0, 7.5, 15, 22.5, 30, and 60 min at 37 °C in a final volume of 200 µL. The reaction was stopped at the required time by placing the tube on ice and acidifying it with 20 µL of 1 M aqueous HCl solution. Then, the aliquots were centrifuged at 20,000×g for 10 min at 4 °C. The obtained supernatants were filtered and analyzed by HPLC on a Vydac C18 column (5 µm, […]) using the solvent system of 0.1% trifluoroacetic acid (TFA) in water (A) and 80% acetonitrile in water containing 0.1% TFA (B) and a linear gradient of 0–100% B over 25 min. The rate constants of degradation (k) were obtained as described earlier by a least square linear regression analysis of logarithmic peak areas [ln(A/AD)], where A—the amount of peptide remaining, AD—the initial amount of peptide, versus time. Degradation half-lives (t1/2) were calculated from the rate constants as ln 2/k.

[2] = target: δ-opioid receptor (Homo sapiens, UniProt P41143); assay: Calcium mobilisation assay, CHO cells with GαqG66Di5; assay type: cell-based; set-up: expressed in transfected cells; host or cells: CHO cells; gift from Prof; Girolamo Calo, University of Padova; conditions: for δ-opioid receptors pEC50 (CL95%): agonist potency, mean ± SEM of three experiments in triplicate; for δ-opioid receptors pEC50 (CL95%) / δ-opioid receptors α ± SEM: Inactive = inactive as an agonist up to 1 µM; for δ-opioid receptors α ± SEM: intrinsic activity, Emax ratio to DPDPE; for EC50: read-out: δ-opioid receptors pEC50 (CL95%) (converted)
Sequence of δ-opioid receptor (P41143 whole entry): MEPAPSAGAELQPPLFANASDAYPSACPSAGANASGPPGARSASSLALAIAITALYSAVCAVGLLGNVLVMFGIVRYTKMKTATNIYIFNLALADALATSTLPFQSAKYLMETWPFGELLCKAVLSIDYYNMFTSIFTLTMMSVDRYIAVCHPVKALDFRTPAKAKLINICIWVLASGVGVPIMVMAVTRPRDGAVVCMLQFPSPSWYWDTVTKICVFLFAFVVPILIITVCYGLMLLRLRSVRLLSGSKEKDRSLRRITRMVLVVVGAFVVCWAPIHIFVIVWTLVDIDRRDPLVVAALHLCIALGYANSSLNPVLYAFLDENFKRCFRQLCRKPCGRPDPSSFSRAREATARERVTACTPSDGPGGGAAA
Experimental: Chinese Hamster Ovary (CHO) cells stably co-expressing human recombinant µ- or κ-opioid receptors and the C-terminally modified Gαqi5, and CHO cells co-expressing the human recombinant δ-opioid receptors and the GαqG66Di5 chimeric protein (a generous gift from Prof. Girolamo Calo, University of Padova, Italy) were used in calcium mobilization assay, that was performed as reported in detail elsewhere. Cells were cultured in Dulbecco’s Modified Eagle’s Medium (DMEM)/Ham’s F12 (1:1) culture medium supplemented with 10% (v/v) Fetal Bovine Serum (FBS), penicillin (100 IU/mL), streptomycin (100 µg/mL), L-glutamine (2 mM), fungizone (1 µg/mL), geneticin (G418; 200 µg/mL) and hygromycin B (100 µg/mL). Cell cultures were kept at 37 °C in 5% CO2/humidified air. When confluence was reached (3–4 days), cells were seeded at a density of 50,000 cells/well into 96-well black, clear-bottom plates. After 24 h incubation, the cells were loaded with a medium supplemented with probenecid (2.5 mM), calcium-sensitive fluorescent dye Fluo-4 AM (3 µM), pluronic acid (0.01%), and HEPES (20 mM) and kept for 30 min at 37 °C. Then, the loading solution was aspirated, and 100 µL/well of assay buffer (HBSS supplemented with 20 mM HEPES, 2.5 mM probenecid, and 500 µM Brilliant Black) was added.
The tested peptides were diluted in the HBSS/HEPES (20 mM) buffer (containing 0.005% BSA) and placed into 96-well plates. The range of concentrations tested was 10 µM–1 × 10^–6 µM. After placing both plates (cell culture and compound plate) into the FlexStation II (Molecular Device, Union City, CA, USA), the online additions were carried out in a volume of 50 µL/well and the fluorescence changes were measured.
Concentration–response curves were fitted with the four-parameter logistic, nonlinear regression model: Effect=baseline+Emax- baseline/1+10^logEC50- Xn where X is the agonist concentration and n is the Hill coefficient. Ligand efficacies, expressed as the intrinsic activity (α), were calculated as the Emax ratio of the tested compound and the standard agonist.

[3] = test system: SH-SY5Y cells; assay: Neuroprotection in 6-OHDA-treated SH-SY5Y cells (MTT); assay type: cell-based, human; conditions: for neuroprotection after pre-treatment with LY 294002: LY 294002 (PI3-K inhibitor) 20 µM; for neuroprotection after pre-treatment with LY 294002 / neuroprotective effect after pre-treatment with PD 98059: 30 min before peptide and 6-OHDA 100 µM; for neuroprotective effect after pre-treatment with PD 98059: PD 98059 (MEK 1 inhibitor) 50 µM; for peptide neuroprotection with opioid receptor antagonists: β-FNA 10 µM or NLT 10 µM 30 min before peptide (1 and/or 10 µM) and 6-OHDA 100 µM, 24 h
Experimental: The neuroprotective experiments were performed in an in vitro model of a human neuroblastoma cell line (SH-SY5Y) obtained from the German Collection of Microorganisms and Cell Cultures GmbH (DSMZ) Bank (ACC 209). Cells were cultured in Dulbecco’s Modified Eagle’s Medium: Nutrient Mixture F12 (DMEM:F12) supplemented with 1% antibiotic/antimycotic (Amphotericin B, Penicillin and Streptomycin) (Biowest, Nuaillé, France) and 10% (v/v) Fetal Bovine Serum (FBS) (Biowest, Riverside, MO, USA). The anti-inflammatory experiments were performed in an in vitro model of mouse macrophage-like RAW 264.7 cells, purchased from American Type Culture Collection (ATCC, Manassas, VA, USA). Cells were maintained in DMEM medium (Gibco™, Grand Island, NY) and supplemented with 10% bovine calf serum (BCS) (Gibco™, Grand Island, NY) and 1% penicillin–streptomycin (Sigma-Aldrich, St. Louis, MO, USA). Cell cultures were kept at 37 °C in 5% CO2/humidified air.
Cells were incubated with peptides (0.1–10 µM) for 24 h to assess their cytotoxic activity. In the neuroprotective model, SH-SY5Y cells were exposed to 6-OHDA (100 µM) in the absence/presence of peptide at non-toxic concentrations (0.1–10 µM). When needed, a 30 min pre-incubation step with β-funaltrexamine (β-FNA, µ-opioid receptor antagonist, 10 µM), naltrindole (NLT, δ-opioid receptor antagonist, 10 µM), 2’-amino-3’-methoxyflavone (PD 98059, MAPK kinase 1 (MEK 1) inhibitor, 50 µM) or 2-(4-morpholinyl)-8-phenyl-4H-1-benzopyran-4-one (LY 294002, PI3-K inhibitor, 20 µM). Stimulation was terminated by aspiration of the medium and adding 100 µL MTT (1.2 mM) per well. Cells were incubated for 1 h at 37 °C. After this time, MTT was removed, and 100 µL DMSO was added. The resulting absorbance was read in a microplate reader (Biotek, Epoch/2 microplate reader, Winooski, VT, USA) at 570 nm.
Cell metabolic activity (cytotoxicity) was calculated as the percentage of the value obtained for cells incubated with compounds compared to control cells treated with the medium.

[4] = test system: LPS-stimulated RAW 264.7 cells; assay: Lipid peroxidation in LPS-stimulated RAW 264.7 cells (DPPP probe); assay type: cell-based, mouse; conditions: 24 h; for decrease of membrane lipids' oxidation: lowest concentration used (0.1 µM)
Experimental: The level of lipid peroxidation was evaluated after RAW 264.7 cells incubation with peptides for 24 h. Then, the cells were loaded with 50 µM diphenyl-1-pyrenylphosphine (DPPP) probe for 15 min, and fluorescence was read at 360 nm excitation and 460 nm emission wavelengths.

CC(C)C[C@H](NC(=O)[C@@H]1CCCN(C(=O)[C@@H](N)Cc2ccc(O)cc2)C1)C(=O)N[C@@H](CC(=O)O)C(=O)N[C@@H](CC(C)C)C(=O)N[C@@H](Cc1ccccc1)C(=O)O [analog 2, Tyr-(R)-Nip-Leu-Asp-Leu-Phe-OH] (H-Y[Nip(3R)]LDLF-OH)
half-life at 0.25 mM [1]: 25.5 ± 0.4 min
δ-opioid receptors pEC50 (CL95%) [2]: Inactive
δ-opioid receptors α ± SEM [2]: Inactive

CC(C)C[C@H](NC(=O)C1CCN(C(=O)[C@@H](N)Cc2ccc(O)cc2)CC1)C(=O)N[C@@H](CC(=O)O)C(=O)N[C@@H](CC(C)C)C(=O)N[C@@H](Cc1ccccc1)C(N)=O [analog 7, Tyr-Inp-Leu-Asp-Leu-Phe-NH2] (H-Y[Inp]LDLF-NH2)
neuroprotection after pre-treatment with LY 294002 [3]: significantly weakened
neuroprotective effect after pre-treatment with PD 98059 [3]: didn’t inhibit
peptide neuroprotection with opioid receptor antagonists [3]: did not abolish
decrease of membrane lipids' oxidation [4]: ~10%
half-life at 0.25 mM [1]: 30.7 ± 0.35 min
δ-opioid receptors pEC50 (CL95%) [2]: Inactive
δ-opioid receptors α ± SEM [2]: Inactive

YPLDLF-NH2 [analog 6, Tyr-Pro-Leu-Asp-Leu-Phe-NH2]
half-life at 0.25 mM [1]: 23.2 ± 1.05 min
δ-opioid receptors pEC50 (CL95%) [2]: Inactive
δ-opioid receptors α ± SEM [2]: Inactive

Cc1cc(O)cc(C)c1C[C@H](N)C(=O)N1CCC(C(=O)N[C@@H](CC(C)C)C(=O)N[C@@H](CC(=O)O)C(=O)N[C@@H](CC(C)C)C(=O)N[C@@H](Cc2ccccc2)C(=O)O)CC1 [analog 5, Dmt-Inp-Leu-Asp-Leu-Phe-OH] (H-[Dmt][Inp]LDLF-OH)
neuroprotection after pre-treatment with LY 294002 [3]: significantly weakened
neuroprotective effect after pre-treatment with PD 98059 [3]: didn’t inhibit
peptide neuroprotection with opioid receptor antagonists [3]: some slight µ- and δ-opioid receptor antagonist effect is evident
inhibition of peroxidation ([4]; 0.1 µM): most significant inhibition
decrease of membrane lipids' oxidation [4]: ~10%
half-life at 0.25 mM [1]: 38.5 ± 0.7 min
δ-opioid receptors α ± SEM [2]: 0.39 ± 0.02
EC50 [2]: 22.4 µM

YPLDLF [R-6, rubiscolin-6]
effect on lipid peroxidation ([4]; 0.1-10 µM): no effect
half-life at 0.25 mM [1]: 14.3 ± 0.8 min
EC50 [2]: 5.62 µM

Cc1cc(O)cc(C)c1C[C@H](N)C(=O)N1CCC[C@H]1C(=O)N[C@@H](CC(C)C)C(=O)N[C@@H](CC(=O)O)C(=O)N[C@@H](CC(C)C)C(=O)N[C@@H](Cc1ccccc1)C(=O)O [analog 1, Dmt-Pro-Leu-Asp-Leu-Phe-OH] (H-[Dmt]PLDLF-OH)
neuroprotection after pre-treatment with LY 294002 [3]: significantly weakened
neuroprotective effect after pre-treatment with PD 98059 [3]: didn’t inhibit
peptide neuroprotection with opioid receptor antagonists [3]: did not abolish
half-life at 0.25 mM [1]: 20.8 ± 0.85 min
δ-opioid receptors pEC50 (CL95%) [2]: Inactive
δ-opioid receptors α ± SEM [2]: Inactive

Cc1cc(O)cc(C)c1C[C@H](N)C(=O)N1CCC[C@@H](C(=O)N[C@@H](CC(C)C)C(=O)N[C@@H](CC(=O)O)C(=O)N[C@@H](CC(C)C)C(=O)N[C@@H](Cc2ccccc2)C(=O)O)C1 [analog 4, Dmt-(R)-Nip-Leu-Asp-Leu-Phe-OH] (H-[Dmt][Nip(3R)]LDLF-OH)
half-life at 0.25 mM [1]: 30.4 ± 1.2 min
δ-opioid receptors pEC50 (CL95%) [2]: Inactive
δ-opioid receptors α ± SEM [2]: Inactive

CC(C)C[C@H](NC(=O)C1CCN(C(=O)[C@@H](N)Cc2ccc(O)cc2)CC1)C(=O)N[C@@H](CC(=O)O)C(=O)N[C@@H](CC(C)C)C(=O)N[C@@H](Cc1ccccc1)C(=O)O [analog 3, Tyr-Inp-Leu-Asp-Leu-Phe-OH] (H-Y[Inp]LDLF-OH)
neuroprotection after pre-treatment with LY 294002 [3]: significantly weakened
neuroprotective effect after pre-treatment with PD 98059 [3]: didn’t inhibit
peptide neuroprotection with opioid receptor antagonists [3]: did not abolish
decrease of membrane lipids' oxidation [4]: ~10%
half-life at 0.25 mM [1]: 28.6 ± 0.95 min
δ-opioid receptors pEC50 (CL95%) [2]: Inactive
δ-opioid receptors α ± SEM [2]: Inactive
